Test results as given in ChEMBL document CHEMBL5380844, “Discovery of a Novel, Potent, Orally Active, and Safe Inhibitor Targeting Human Mitochondrial RNA Polymerase” (J Med Chem, 2023).
The source made the active and inactive calls. The calls are words filed in the database; no cut-off is given here.

Tests used:
[1] = AUC (0 to t) in ICR mouse at 10 mg/kg, po measured upto 24 hrs by LC-MS/MS analysis; assay type: ADME, organism-based; parameters: dose 10 mg/kg, time < 24 hrs, route po; settings: in vivo
[2] = AUC (0 to t) in ICR mouse at 1 mg/kg, iv measured upto 24 hrs by LC-MS/MS analysis; assay type: ADME, organism-based; parameters: time < 24 hrs, dose 1 mg/kg, route iv; settings: in vivo
[3] = AUC (0 to infinity) in ICR mouse at 1 mg/kg, iv measured upto 24 hrs by LC-MS/MS analysis; assay type: ADME, organism-based; parameters: time < 24 hrs, dose 1 mg/kg, route iv; settings: in vivo
A2780 [4] = assay: Effect on beta-actin mRNA level in human A2780 cells by RT-qPCR analysis; assay type: functional, cell-based
A2780 [5] = assay: Inhibition of MT-ND3 expression in human A2780 cells at 100 nM incubated for 12 hrs by RNA sequencing analysis; assay type: functional, cell-based
A2780 [6] = assay: Inhibition of mitochondrial transcript in human A2780 cells incubated for 12 hrs followed by compound removal and measured after 24 hrs by RT-qPCR analysis; assay type: functional, cell-based
A2780 [7] = assay: Induction of apoptosis in human A2780 cells assessed as late apoptotic cells at 100 nM incubated for 96 hrs by Annexin-V/FITC and PI staining based flow cytometry analysis (reference value: 3.79%); assay type: functional

Q: What does the source list for Cc1ccc(-c2cc(=O)oc3cc(O[C@H](C)C(=O)N4CC5CCC(C4)N5C)ccc23)c(C)c1?
A: AUC(0-t) at 24 h [1]: 1830 ng·h/mL; AUC(0-t) at 24 h [2]: 424 ng·h/mL; AUC(0-inf) [3]: 439 ng·h/mL; Activity (A2780 [4]): inactive; inhibition (A2780 [5]): Active; inhibition (A2780 [6]): inactive; Activity (A2780 [7]): 5.11%
